From patent US12128028B2, “Heterocyclic sulfonamide derivatives and pharmaceutical uses thereof” (METRION BIOSCIENCES LIMITED, priority 2018, dated 2024)

Target: human Kv1.3 (Homo sapiens (Human), UniProt P22001)
Test: Kv1.3 potency evaluation, automated patch clamp electrophysiology (QPatch HT) in CHO-Kv1.3 cells
Format: cell-based
Details: whole-cell QPatch HT, % inhibition of charge, step to +30 mV, four concentrations, N≥3 cells, read-out: hKv1.3 IC50
Method in brief: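 Automated whole-cell patch clamp in CHO cells stably expressing human Kv1.3; steps from −80 to +30 mV (500 ms) at 0.067 Hz. Four cumulative concentrations after vehicle (0.1-0.3% DMSO); charge inhibition vs vehicle fitted by four-parameter logistic for IC50, N≥3 cells.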

Chain of human Kv1.3 (P22001 whole entry): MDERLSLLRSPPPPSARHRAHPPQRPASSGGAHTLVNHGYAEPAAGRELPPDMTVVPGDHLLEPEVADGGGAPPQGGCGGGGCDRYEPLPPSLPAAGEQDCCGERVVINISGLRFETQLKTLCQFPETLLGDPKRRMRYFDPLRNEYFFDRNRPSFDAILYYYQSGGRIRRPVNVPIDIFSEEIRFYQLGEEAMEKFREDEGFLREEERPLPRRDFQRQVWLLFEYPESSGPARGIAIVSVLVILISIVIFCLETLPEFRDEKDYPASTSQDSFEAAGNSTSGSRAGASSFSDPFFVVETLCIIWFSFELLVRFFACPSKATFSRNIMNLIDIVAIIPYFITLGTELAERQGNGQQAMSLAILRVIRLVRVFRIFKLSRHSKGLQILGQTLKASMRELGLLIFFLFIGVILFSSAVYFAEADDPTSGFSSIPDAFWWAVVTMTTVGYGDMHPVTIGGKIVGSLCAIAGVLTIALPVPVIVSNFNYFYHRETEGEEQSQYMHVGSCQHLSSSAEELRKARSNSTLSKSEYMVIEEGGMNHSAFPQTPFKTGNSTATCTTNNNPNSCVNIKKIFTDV

| SMILES | IC50 |
| --- | --- |
| CC(NC(=O)[C@@]1(C)CN=C(C23CC(N(Cc4ccc(C(F)(F)F)cc4)S(=O)(=O)c4ccc(F)cc4)(C2)C3)N1)C1CCC1 (mixture of isomers) [Example 275] | 571 nM |
| CC1(C)N=C(C23CC(N(Cc4ccc(Cl)cc4)S(=O)(=O)CC(F)(F)F)(C2)C3)N[C@H]1C(=O)NCCC(F)(F)F (mixture of isomers) [Example 276] | 575 nM |
| C[C@]1(C(=O)NCCC2CCC2)CN=C(C23CC(N(Cc4ccc(C(F)(F)F)cc4)S(=O)(=O)c4ccc(F)cc4)(C2)C3)N1 (mixture of isomers) [Example 278] | 595 nM |
| CC1(C)CC(NC(=O)[C@@]2(C)CN=C(C34CC(N(Cc5ccc(C(F)(F)F)cc5)S(=O)(=O)c5ccc(F)cc5)(C3)C4)N2)C1 (mixture of isomers) [Example 280] | 615 nM |
| CC1(C)N=C(C23CC(N(Cc4ccc(Cl)c(F)c4)S(=O)(=O)c4ccccc4)(C2)C3)N[C@H]1C(=O)N1CCC1 (mixture of isomers) [Example 282] | 706 nM |
| CC1(C)N=C(C23CC(N(Cc4ccc(Cl)c(Cl)c4)S(=O)(=O)c4ccccc4)(C2)C3)N[C@H]1C(=O)N1CCC2(COC2)C1 (mixture of isomers) [Example 283] | 749 nM |
| C[C@@]1(C(=O)NCC2CCCCC2)CN=C(C23CC(N(Cc4ccc(C(F)(F)F)cc4)S(=O)(=O)c4ccc(F)cc4)(C2)C3)N1 (mixture of isomers) [Example 285] | 802 nM |
| CC1(C)N=C(C23CC(N(Cc4ccc(Cl)cc4)S(=O)(=O)c4cc(C(F)(F)F)ccc4O)(C2)C3)N[C@H]1C(=O)NCCC(F)(F)F (mixture of isomers) [Example 286] | 859 nM |
| CC1(C)N=C(C23CC(N(Cc4ccc(Cl)cc4)S(=O)(=O)C(C)(C)C)(C2)C3)N[C@H]1C(=O)NCCC(F)(F)F (mixture of isomers) [Example 287] | 976 nM |
| C[C@@]1(C(=O)Nc2ccccc2)CN=C(C23CC(N(Cc4ccc(C(F)(F)F)cc4)S(=O)(=O)c4ccc(F)cc4)(C2)C3)N1 (mixture of isomers) [Example 288] | 1020 nM |
| CC1(C)CC(CNC(=O)[C@@]2(C)CN=C(C34CC(N(Cc5ccc(C(F)(F)F)cc5)S(=O)(=O)c5ccc(F)cc5)(C3)C4)N2)C1 (mixture of isomers) [Example 289] | 1060 nM |
| C[C@]1(C(=O)NCC2CCCCC2)CN=C(C23CC(N(Cc4ccc(C(F)(F)F)cc4)S(=O)(=O)c4ccc(F)cc4)(C2)C3)N1 (mixture of isomers) [Example 290] | 1060 nM |
| CC1(C)N=C(C23CC(N(Cc4ccc(Cl)cc4)S(=O)(=O)c4ncc[nH]4)(C2)C3)N[C@H]1C(=O)NCCC(F)(F)F (mixture of isomers) [Example 291] | 1120 nM |
| CC1(C)N=C(C23CC(N(Cc4ccc(Cl)cc4)S(=O)(=O)c4ccccc4C(N)=O)(C2)C3)N[C@H]1C(=O)NCCC(F)(F)F (mixture of isomers) [Example 292] | 2950 nM |
| C[C@]1(C(=O)Nc2ccccc2)CN=C(C23CC(N(Cc4ccc(C(F)(F)F)cc4)S(=O)(=O)c4ccc(F)cc4)(C2)C3)N1 (mixture of isomers) [Example 293] | 4080 nM |
| CC1(C)N=C(C23CC(N(Cc4ccc(Cl)cc4)S(=O)(=O)CCO)(C2)C3)N[C@H]1C(=O)NCCC(F)(F)F (mixture of isomers) [Example 294] | 10500 nM |
| CC1(C)N=C(C23CC(N(Cc4ccc(Cl)cc4)S(=O)(=O)c4ccc[nH]c4=O)(C2)C3)N[C@H]1C(=O)NCCC(F)(F)F (mixture of isomers) [Example 295] | 21400 nM |
| CC1(C)N=C(C23CC(N(Cc4ccc(Cl)c(F)c4)S(=O)(=O)c4ccccc4)(C2)C3)N[C@H]1C(=O)NC12CC(C1)C2 [Example 1, (R)-N-(Bicyclo[1.1.1]pentan-1-yl)-2-(3-(N-(4-chloro-3-fluorobenzyl)phenylsulfonamido)bicyclo[1.1.1]pentan-1-yl)-4,4-dimethyl-4,5-dihydro-1H-imidazole-5-carboxamide] | 35 nM |
| CC1(C)N=C(C23CC(N(Cc4ccc(Cl)c(Cl)c4)S(=O)(=O)c4ccccc4)(C2)C3)N[C@H]1C(=O)NCC(F)(F)C(F)(F)F [Example 5] | 138 nM |
| CC1(C)N=C(C23CC(N(Cc4ccc(F)cc4)S(=O)(=O)c4ccccc4)(C2)C3)NC1C(=O)NCCC(F)(F)F (stereo not drawn) [Example 97] | 66 nM |
| CC1(C)N=C(C23CC(N(Cc4ccc(C(F)(F)F)cc4)S(=O)(=O)c4ccc(F)cc4)(C2)C3)N[C@H]1C(=O)NCC1(F)CCC1 [Example 145] | 88 nM |
| CC1(C)N=C(C23CC(N(Cc4ccc(Cl)cc4)S(=O)(=O)c4ccccc4)(C2)C3)NC1C(=O)NCCC(F)(F)F (stereo not drawn) [Example 148] | 89 nM |
| CC1(C)N=C(C23CC(N(Cc4ccc(C(F)(F)F)cc4)S(=O)(=O)c4ccc(F)cc4)(C2)C3)NC1C(=O)N1CCCCC1 (stereo not drawn) [Example 157] | 94 nM |

| SMILES | IC50 |
| --- | --- |
| CC1(C)N=C(C23CC(N(Cc4ccc(C(F)(F)F)cc4)S(=O)(=O)c4ccc(F)cc4)(C2)C3)NC1C(=O)NCC1CC1(F)F (stereo not drawn) [Example 161] | 98 nM |
| CC1(C)N=C(C23CC(N(Cc4ccc(C(F)(F)F)cc4)S(=O)(=O)c4ccc(F)cc4)(C2)C3)NC1C(=O)NCC1(C#N)CCC1 (stereo not drawn) [Example 164] | 99 nM |
| CCCC1(C(=O)NC(C)C)CN=C(C23CC(N(Cc4ccc(C(F)(F)F)cc4)S(=O)(=O)c4ccc(F)cc4)(C2)C3)N1 (stereo not drawn) [Example 182] | 108 nM |
| CC1(C)N=C(C23CC(N(Cc4ccc(C(F)(F)F)cc4)S(=O)(=O)c4ccc(F)cc4)(C2)C3)NC1C(=O)NCC1CC(F)(F)C1 (stereo not drawn) [Example 186] | 110 nM |
| CC1(C)N=C(C23CC(N(Cc4ccc(C(F)(F)F)cc4)S(=O)(=O)c4ccc(F)cc4)(C2)C3)NC1C(=O)NCC1CCC1 (stereo not drawn) [Example 192] | 115 nM |
| CC1(C)N=C(C23CC(N(Cc4ccc(C(F)(F)F)cc4)S(=O)(=O)c4ccc(F)cc4)(C2)C3)NC1C(=O)NCCC(F)(F)F (stereo not drawn) [Example 193] | 115 nM |
| CC(C)NC(=O)C1NC(C23CC(N(Cc4ccc(C(F)(F)F)cc4)S(=O)(=O)c4ccc(F)cc4)(C2)C3)=NC1(C)C (stereo not drawn) [Example 208] | 143 nM |
| CC1(C)N=C(C23CC(N(Cc4ccc(C(F)(F)F)cc4)S(=O)(=O)c4ccccc4)(C2)C3)NC1C(=O)NCCC(F)(F)F (stereo not drawn) [Example 220] | 169 nM |
| O=C(NCCC(F)(F)F)[C@@H]1NC(C23CC(N(Cc4ccc(C(F)(F)F)cc4)S(=O)(=O)c4ccc(F)cc4)(C2)C3)=NC12CC2 [Example 224] | 178 nM |
| O=C(NCC1CCC1)C1NC(C23CC(N(Cc4ccc(C(F)(F)F)cc4)S(=O)(=O)c4ccc(F)cc4)(C2)C3)=NC12CCC2 (stereo not drawn) [Example 229] | 199 nM |
| CC1(NC(=O)C2NC(C34CC(N(Cc5ccc(C(F)(F)F)cc5)S(=O)(=O)c5ccc(F)cc5)(C3)C4)=NC2(C)C)CCC1 (stereo not drawn) [Example 232] | 208 nM |
| CC1(C)N=C(C23CC(N(Cc4ccc(C(F)(F)F)cc4)S(=O)(=O)c4ccc(F)cc4)(C2)C3)NC1C(=O)N1CCC(F)(F)CC1 (stereo not drawn) [Example 236] | 213 nM |
| COC1(CNC(=O)C2NC(C34CC(N(Cc5ccc(C(F)(F)F)cc5)S(=O)(=O)c5ccc(F)cc5)(C3)C4)=NC2(C)C)CCC1 (stereo not drawn) [Example 237] | 217 nM |
| O=C(NCC1CCC1)C1NC(C23CC(N(Cc4ccc(C(F)(F)F)cc4)S(=O)(=O)c4ccc(F)cc4)(C2)C3)=NC12CC2 (stereo not drawn) [Example 239] | 230 nM |
| NC(=O)C1(Cc2ccccc2)CN=C(C23CC(N(Cc4ccc(C(F)(F)F)cc4)S(=O)(=O)c4ccc(F)cc4)(C2)C3)N1 (stereo not drawn) [Example 263] | 400 nM |
| CC(C)C1(C(=O)NCC2CCC2)CN=C(C23CC(N(Cc4ccc(C(F)(F)F)cc4)S(=O)(=O)c4ccc(F)cc4)(C2)C3)N1 (stereo not drawn) [Example 266] | 415 nM |
| CC1(C)N=C(C23CC(N(Cc4ccc(C(F)(F)F)cc4)S(=O)(=O)c4ccc(F)cc4)(C2)C3)NC1C(=O)NCC1(O)CCC1 (stereo not drawn) [Example 271] | 494 nM |
| CCCC1(C(=O)NCC2CCC2)CN=C(C23CC(N(Cc4ccc(C(F)(F)F)cc4)S(=O)(=O)c4ccc(F)cc4)(C2)C3)N1 (stereo not drawn) [Example 273] | 552 nM |
| CN(C)C(=O)[C@H]1CN=C(C23CC(N(Cc4ccc(C(F)(F)F)cc4)S(=O)(=O)c4ccc(F)cc4)(C2)C3)N1 [Example 277] | 593 nM |
| O=C(NCC1CCC1)C1(Cc2ccccc2)CN=C(C23CC(N(Cc4ccc(C(F)(F)F)cc4)S(=O)(=O)c4ccc(F)cc4)(C2)C3)N1 (stereo not drawn) [Example 279] | 608 nM |
| CC([C@@H]1CN=C(C23CC(N(Cc4ccc(C(F)(F)F)cc4)S(=O)(=O)c4ccc(F)cc4)(C2)C3)N1)N(C)C (stereo partly drawn) [Example 281] | 632 nM |
| CC(C)CC1(C(=O)NCC2CCC2)CN=C(C23CC(N(Cc4ccc(C(F)(F)F)cc4)S(=O)(=O)c4ccc(F)cc4)(C2)C3)N1 (stereo not drawn) [Example 284] | 787 nM |
